Laboratory results reported in patent US20200405752A1, “ANTITUMOR AGENT, ANTITUMOR EFFECT ENHANCER, AND ANTITUMOR KIT” (FUJIFILM Corporation, priority 2018, published 2020).
Like-named read-outs stand apart in the source and are kept apart here.

Tested on: human pancreatic cancer-derived cell line SUIT-2
Assay: Cell viability (CellTiter Glo, intracellular ATP) of SUIT-2 in combination with cisplatin or oxaliplatin
Type: cell-based
Settings: for viability at 0.0015 µM / viability at 0.0046 µM / viability at 0.0137 µM / viability at 0.0412 µM / viability at 0.1235 µM / viability at 0.3704 µM / viability at 1.1111 µM / viability at 3.3333 µM / viability at 10 µM / viability at 0.001 µM / viability at 0.003 µM / viability at 0.01 µM / viability at 0.03 µM / viability at 0.1 µM / viability at 0.3 µM / viability at 1 µM / viability at 3 µM / IC50: Homo sapiens; for viability at 0.0015 µM / viability at 0.0046 µM / viability at 0.0137 µM / viability at 0.0412 µM / viability at 0.1235 µM / viability at 0.3704 µM / viability at 1.1111 µM / viability at 3.3333 µM / viability at 10 µM / viability at 0.001 µM / viability at 0.003 µM / viability at 0.01 µM / viability at 0.03 µM / viability at 0.1 µM / viability at 0.3 µM / viability at 1 µM / viability at 3 µM: SUIT-2, 72 h, 3 days; for viability at 0.0015 µM / viability at 0.0046 µM / viability at 0.0137 µM / viability at 0.0412 µM / viability at 0.1235 µM / viability at 0.3704 µM / viability at 1.1111 µM / viability at 3.3333 µM / viability at 10 µM / viability at 0.001 µM / viability at 0.003 µM / viability at 0.01 µM / viability at 0.03 µM / viability at 0.1 µM / viability at 0.3 µM / viability at 1 µM / viability at 3 µM / combination index (CI): SUIT-2; for viability at 0.0015 µM: test substance 1.5 nM; for viability at 0.0046 µM: test substance 4.6 nM; for viability at 0.0137 µM: test substance 13.7 nM; for viability at 0.0412 µM: test substance 41.2 nM; for viability at 0.1235 µM: test substance 123.5 nM; for viability at 0.3704 µM: test substance 370.4 nM; for viability at 1.1111 µM: test substance 1111.1 nM; for viability at 3.3333 µM: test substance 3333.3 nM; for viability at 0.001 µM: test substance 1 nM; for viability at 0.003 µM: test substance 3 nM; for viability at 0.01 µM: test substance 10 nM; for viability at 0.03 µM: test substance 30 nM; for viability at 0.1 µM: test substance 100 nM; for viability at 0.3 µM: test substance 300 nM; for viability at 1 µM: test substance 1000 nM; for viability at 3 µM: test substance 3000 nM; for IC50: SUIT-2, SUIT-2, read-out: IC50 value (concentration that inhibits cell viability by 50%); for combination index (CI): CI<1 synergistic
Excerpt: Evaluation of antitumor activity against human pancreatic cancer-derived cell line SUIT-2 by combination use of cisplatin and oxaliplatin
Gemcitabine (hereinafter, also referred to as Gem), cisplatin, oxaliplatin, and methanesulfonate of Compound A were used as test substances.
Gemcitabine hydrochloride (manufactured by Plantex Co., Ltd.) dissolved in dimethyl sulfoxide (DMSO) was used as gemcitabine. Cisplatin (Cat. #039-20091, manufactured by Wako Pure Chemical Industries, Ltd.) and oxaliplatin (Cat. #00372, manufactured by Tokyo Chemical Industry Co., Ltd.), each of which dissolved in serum-free RPMI-1640 medium (Cat. #11875-119, manufactured by Thermo Fisher Scientific Inc.), were used as cisplatin and oxaliplatin, respectively.
Human pancreatic cancer cell line SUIT-2 cells were subcultured in RPMI-1640 medium supplemented with 10% serum (Cat. #10437-028, manufactured by Thermo Fisher Scientific Inc.). During this test, all cell cultures were carried out in a CO2 incubator (set to 37° C. and 5% CO2, saturated with water vapor). The culture was diluted with a 10% serum-supplemented medium to a cell density of 15000 cells/well/100 μL and the cells were seeded on a 96-well plate. On the next day, the culture supernatant of each well was discarded, followed by washing twice with 150 μL of serum-free medium, and 100 μL of serum-free medium was added thereto, followed by culturing for 3 days.
The methanesulfonate of Compound A and gemcitabine were dissolved in DMSO to prepare 100 mmol/L DMSO solutions thereof. The thus-prepared DMSO solutions were diluted sequentially with DMSO to prepare DMSO solutions having a final treatment concentration of 1000-fold dilution. Cisplatin and oxaliplatin were dissolved in serum-free medium to prepare a cisplatin solution 30 μmol/L and an oxaliplatin solution 60 μmol/L, respectively. The DMSO diluted solutions of Compound A and gemcitabine were diluted with the cisplatin solution (30 μmol/L) or the oxaliplatin solution (60 μmol/L) to prepare treatment liquids having a final treatment concentration of 6-fold dilution. Compound A and gemcitabine were used with a maximum concentration of 10 μmol/L at a common ratio of 1/3 and 9 concentrations in combination with cisplatin or oxaliplatin.
20 μL of Compound A or gemcitabine diluted with the cisplatin solution (30 μmol/L) or the oxaliplatin solution (60 μmol/L) was added to each well. In addition, a group in which only a solvent containing no drug was added to wells in which cells were seeded (positive control), and a group in which only a solvent containing no drug was added to wells containing only a medium (negative control) were provided. All groups were set to n=3 well.
The cells were cultured for 3 days after the addition of the drug, and the cell viability was evaluated using a CellTiter Glo (registered trademark) Reagent (Cat. #G7570, manufactured by Promega Corporation) with the intracellular ATP level as an index. The concentration that inhibits cell viability by 50% (IC50 value) was calculated using XLFit software Ver.3 (registered trademark, manufactured by CTC Laboratory Systems Corporation).
The cell viability of each well was determined with the luminescence signal level of the negative control being 0% cell viability and the luminescence signal level of the positive control being 100% cell viability. The average value and standard deviation of the cell viability of each treatment group were calculated to prepare Table 1 and Table 2.
On the combinational effect of the embodiment of the invention, the results of evaluation using a combination index (CI) which is a quantitative index of the combinational effect are shown. The CI can be calculated by the following equation according to Cancer Research, 2010, Vol. 70, pp. 440 to 446.
That is, in a case where the drugs to be used in combination are drug 1 and drug 2, the CI at a certain drug concentration is […]

[1] = with cisplatin 5 μmol/L, test substance 10000.0 nM
[2] = with oxaliplatin 10 μmol/L, test substance 10000 nM
[3] = used in combination with cisplatin (5 μmol/L, Table 1)
[4] = used in combination with oxaliplatin (10 μmol/L, Table 2)

Row | IC50 [3] [nM] | IC50 [4] [nM] | SMILES | viability at 0.0015 µM (with cisplatin 5 μmol/L) [%] | viability at 0.0046 µM (with cisplatin 5 μmol/L) [%] | viability at 0.0137 µM (with cisplatin 5 μmol/L) [%] | viability at 0.0412 µM (with cisplatin 5 μmol/L) [%] | viability at 0.1235 µM (with cisplatin 5 μmol/L) [%] | viability at 0.3704 µM (with cisplatin 5 μmol/L) [%] | viability at 1.1111 µM (with cisplatin 5 μmol/L) [%] | viability at 3.3333 µM (with cisplatin 5 μmol/L) [%] | viability at 10 µM [1] [%] | viability at 0.001 µM (with oxaliplatin 10 μmol/L) [%] | viability at 0.003 µM (with oxaliplatin 10 μmol/L) [%] | viability at 0.01 µM (with oxaliplatin 10 μmol/L) [%] | viability at 0.03 µM (with oxaliplatin 10 μmol/L) [%] | viability at 0.1 µM (with oxaliplatin 10 μmol/L) [%] | viability at 0.3 µM (with oxaliplatin 10 μmol/L) [%] | viability at 1 µM (with oxaliplatin 10 μmol/L) [%] | viability at 3 µM (with oxaliplatin 10 μmol/L) [%] | viability at 10 µM [2] [%] | also measured
1 | 1140 | ≥ 10000 | Nc1ccn([C@@H]2O[C@H](CO)[C@@H](O)C2(F)F)c(=O)n1 [Gemcitabine] | 98 | 97 | 99 | 94 | 82 | 73 | 54 | 32 | 22 | 98 | 102 | 97 | 97 | 101 | 96 | 89 | 80 | 61 | combination index (CI) (combination with cisplatin): 0.96; combination index (CI) (combination with oxaliplatin): 0.97
2 | 12.9 | 73.4 | Nc1ccn([C@@H]2S[C@H](CO)[C@@H](O)[C@@H]2F)c(=O)n1 [Compound A, 1-(2-deoxy-2-fluoro-4-thio-β-D-arabinofuranosyl)cytosine] | 96 | 80 | 47 | 33 | 28 | 28 | 26 | 27 | 30 | 94 | 93 | 87 | 60 | 46 | 41 | 38 | 39 | 38 | combination index (CI) (combination with cisplatin): 0.36; combination index (CI) (combination with oxaliplatin): 0.44
